Measured values reported in patent publication US8906868B2, “Aminoglycoside derivatives” (Rempex Pharmaceuticals, Inc., priority 2010, dated 2014).
≈ marks a conversion by molar mass, not a printed value. Where two headings read alike, the source gives them in different places.

Key:
[1] = system: Staphylococcus aureus (ATCC 29213); experiment: MIC, broth microdilution; settings: Staphylococcus aureus
PAM3072 aac(6′)-II = experiment: microbe, parasite or virus in culture; assay type: cell-based, Pseudomonas aeruginosa; settings: Pseudomonas aeruginosa, Table 5; read-out: Compound MIC on Bacterial Strains: Pseudomonas aeruginosa PAM3072 aac(6′)-II
Experimental: (§1) To compare microbiological activity of the test compounds, minimum inhibitory concentrations (MIC.s) were determined. Antibiotic MICs were obtained using the broth microdilution method according to Clinical and Laboratory Standards Institute (CLSI) approved guidelines (Methods for dilution antimicrobial susceptibility tests for bacteria that grow aerobically; approved standard—7th ed. CLSI document M7-A7. Clinical and Laboratory Standards Institute, Wayne, Pa., incorporated herein by reference in its entirety). Antibiotics were dissolved as specified by CLSI (Performance standards for antimicrobial susceptibility testing; Seventeenth informational supplement. CLSI document M100-S17. Clinical and Laboratory Standards Institute, Wayne, Pa., incorporated herein by reference in its entirety), and were serially diluted 2-fold in cation adjusted Mueller Hinton Broth (CaMHB) at 2× concentration. Bacterial inoculums were prepared in CaMHB by suspension of a colony from an agar plate that was prepared the previous day to obtain a final concentration of 5×10^5CFU/ml. The plates were incubated for 18 hours at 35° C. […] MIC.s were determined by reading the turbidity of plate wells using a SpectraMax Plus384 plate reader (Molecular Devices, Sunnyvale, Calif., USA) at 600 nm and were confirmed by visual inspection.

PAM3073 aac(6′)-I = experiment: microbe, parasite or virus in culture; assay type: cell-based, Pseudomonas aeruginosa; settings: Pseudomonas aeruginosa, Table 5; read-out: Compound MIC on Bacterial Strains: Pseudomonas aeruginosa PAM3073 aac(6′)-I
Experimental: as §1

[2] = system: Escherichia coli (ATCC 25922); experiment: MIC, broth microdilution; settings: Escherichia coli
ECM6006 aph(3′)-III = experiment: microbe, parasite or virus in culture; assay type: cell-based, Escherichia coli; settings: Escherichia coli, read-out: Compound MIC on Bacterial Strains: ECM6006 aph(3′)-III
Experimental: as §1
(§2) Activity of the test compounds was determined using QC strains and strains with known aminoglycoside resistance mechanisms (TABLE 3). This specific panel contained strains expressing enzymes that covalently modify N2″, N3 and N3′ positions.

ECM6009 aac(3)-II = experiment: microbe, parasite or virus in culture; assay type: cell-based, Escherichia coli; settings: Escherichia coli, read-out: Compound MIC on Bacterial Strains: ECM6009 aac(3)-II
Experimental: as §1, §2

ECM6011 aph(3′)-I = experiment: microbe, parasite or virus in culture; assay type: cell-based, Escherichia coli; settings: Escherichia coli, read-out: Compound MIC on Bacterial Strains: ECM6011 aph(3′)-I
Experimental: as §1, §2

ECM6010 ant(2″)-I = experiment: microbe, parasite or virus in culture; assay type: cell-based, Escherichia coli; settings: Escherichia coli, read-out: Compound MIC on Bacterial Strains: ECM6010 ant(2″)-I
Experimental: as §1, §2

Sa 287 aac(6′) + aph(2″) = experiment: microbe, parasite or virus in culture; assay type: cell-based, Staphylococcus aureus; settings: Staphylococcus aureus, 18 h; Table 5; read-out: Compound MIC on Bacterial Strains: Staphylococcus aureus Sa 287 aac(6′) + aph(2″)
Experimental: as §1

ECM6003 rmtB = experiment: microbe, parasite or virus in culture; assay type: cell-based, Escherichia coli; settings: Escherichia coli; Table 3; read-out: Compound MIC on Bacterial Strains: ECM6003 rmtB
Experimental: as §1, §2
The panel also contained a strain expressing ribosomal RNA methylase, RmtB.

EC1002 aph(3′)-IV = experiment: organism not typed; assay type: cell-based; settings: read-out: Compound MIC on Bacterial Strains: EC1002 aph(3′)-IV
Experimental: as §1, §2

[3] = system: Pseudomonas aeruginosa (ATCC 27853); experiment: MIC, broth microdilution; settings: Pseudomonas aeruginosa
ACM1006 acc(6′)-Ib = experiment: microbe, parasite or virus in culture; assay type: cell-based, Acinetobacter baumannii; settings: Acinetobacter baumannii; Table 4; read-out: Compound MIC on Bacterial Strains: Acinetobacter baumannii ACM1006 acc(6′)-Ib
Experimental: as §1

[4] = system: Klebsiella pneumonia (ATCC 43816); experiment: MIC, broth microdilution; settings: Klebsiella pneumoniae, ATCC43816, read-out: Compound MIC on Bacterial Strains: K. pneumonia ATCC 43816
[5] = system: Acinetobacter baumannii (ATCC 19606); experiment: MIC, broth microdilution; settings: Acinetobacter baumannii, ATCC19606, read-out: Compound MIC on Bacterial Strains: A. baumannii ATCC 19606
ACM1005 ATCC 19004 = experiment: MIC, broth microdilution; assay type: cell-based, Acinetobacter baumannii; settings: Acinetobacter baumannii, ATCC19004; Table 4; read-out: Compound MIC on Bacterial Strains: Acinetobacter baumannii ACM1005 ATCC 19004
Experimental: as §1

EC1001 acc(6′)-Ib = experiment: microbe, parasite or virus in culture; assay type: cell-based, Escherichia coli; settings: Escherichia coli; Table 4; read-out: Compound MIC on Bacterial Strains: Escherichia coli EC1001 acc(6′)-Ib
Experimental: as §1

[6] = system: ECM6007 aac(6′) + aph(2″); experiment: microbe, parasite or virus in culture; assay type: cell-based, Escherichia coli; settings: Escherichia coli, 18 h; Table 4; read-out: Compound MIC on Bacterial Strains: Escherichia coli ECM6007 aac(6′) + aph(2″)
Experimental: as §1

[7] = ATCC29213, read-out: Compound MIC on Bacterial Strains: Staphylococcus aureus SAM1000 ATCC 29213, Table 5
[8] = ATCC25922, read-out: Compound MIC on Bacterial Strains: ECM6000 ATCC 25922
[9] = ATCC27853, read-out: Compound MIC on Bacterial Strains: Pseudomonas aeruginosa PAM3034 ATCC 27853
[10] = ATCC29213, read-out: Compound MIC on Bacterial Strains: S. aureus ATCC 29213, QC strain, Table 2
[11] = ATCC25922, read-out: Compound MIC on Bacterial Strains: E. coli ATCC 25922
[12] = ATCC25922, read-out: Compound MIC on Bacterial Strains: Escherichia coli ECM6000 ATCC 25922
[13] = ATCC27853, read-out: Compound MIC on Bacterial Strains: P. aeruginosa ATCC 27853

Compound | MIC [1, 7] | MIC (PAM3072 aac(6′)-II) | MIC (PAM3073 aac(6′)-I) | MIC [2, 8] | MIC (ECM6006 aph(3′)-III) | MIC (ECM6009 aac(3)-II) | MIC (ECM6011 aph(3′)-I) | MIC (ECM6010 ant(2″)-I) | MIC (Sa 287 aac(6′) + aph(2″)) | MIC (ECM6003 rmtB) | MIC (EC1002 aph(3′)-IV) | MIC [3, 9] | MIC (ACM1006 acc(6′)-Ib) | MIC [1, 10] | MIC [4] | MIC [5] | MIC [2, 11] | MIC [2, 12] | MIC [3, 13] | MIC (ACM1005 ATCC 19004) | other results
CN[C@@H]1C(O)[C@@H](OC2C(O)C(O[C@H]3O[C@H](CNCCO)CCC3N)[C@@H](N)C[C@H]2NC(=O)[C@@H](O)[C@@H](O)CN)OCC1(C)O (some centres unmarked) [Compound 4] | 1 to 8 µg/mL (≈ 1.64 to 13.1 µM) | > 8 µg/mL | 1 to 8 µg/mL (≈ 1.64 to 13.1 µM) | 1 to 8 µg/mL (≈ 1.64 to 13.1 µM) | 1 to 8 µg/mL (≈ 1.64 to 13.1 µM) | < 1 µg/mL | < 1 µg/mL | 1 to 8 µg/mL (≈ 1.64 to 13.1 µM) | 1 to 8 µg/mL | > 8 µg/mL | 1 to 8 µg/mL (≈ 1.64 to 13.1 µM) | 1 to 8 µg/mL (≈ 1.64 to 13.1 µM) |  |  |  |  |  |  |  |  | 
CNC[C@@H]1CCC(N)[C@@H](OC2C(O)C(O[C@H]3OCC(C)(O)[C@H](NC)C3O)[C@H](NC(=O)[C@@H](O)C(O)CN)C[C@@H]2N)O1 (stereo in doubt) [Compound 23, (2S,3R)-4-amino-N-((1R,2S,3S,4R,5S)-5-amino-4-((2R,3R,6S)-3-amino-6-((methylamino)methyl)tetrahydro-2H-pyran-2-yloxy)-2-((2R,3R,4R,5R)-3,5-dihydroxy-5-methyl-4-(methylamino)tetrahydro-2H-pyran-2-yloxy)-3-hydroxycyclohexyl)-2,3-dihydroxybutanamide] | 1 to 8 µg/mL (≈ 1.72 to 13.8 µM) | > 8 µg/mL | 1 to 8 µg/mL (≈ 1.72 to 13.8 µM) | 1 to 8 µg/mL (≈ 1.72 to 13.8 µM) | 1 to 8 µg/mL (≈ 1.72 to 13.8 µM) | 1 to 8 µg/mL (≈ 1.72 to 13.8 µM) | 1 to 8 µg/mL (≈ 1.72 to 13.8 µM) | 1 to 8 µg/mL (≈ 1.72 to 13.8 µM) | 1 to 8 µg/mL | 1 to 8 µg/mL (≈ 1.72 to 13.8 µM) | 1 to 8 µg/mL (≈ 1.72 to 13.8 µM) | 1 to 8 µg/mL (≈ 1.72 to 13.8 µM) | 1 to 8 µg/mL (≈ 1.72 to 13.8 µM) | < 1 µg/mL | < 1 µg/mL | > 8 µg/mL | < 1 µg/mL | 1 to 8 µg/mL (≈ 1.72 to 13.8 µM) | 1 to 8 µg/mL (≈ 1.72 to 13.8 µM) | 1 to 8 µg/mL (≈ 1.72 to 13.8 µM) | MIC (EC1001 acc(6′)-Ib): 1 to 8 µg/mL (≈ 1.72 to 13.8 µM); MIC [6]: < 1 µg/mL
NC[C@H]1O[C@H](O[C@H]2[C@H](O)[C@@H](O[C@H]3O[C@H](CO)[C@@H](O)[C@H](N)[C@H]3O)[C@H](N)C[C@@H]2N)[C@H](N)C[C@@H]1O [Tobramycin, reference compound] | < 1 µg/mL | > 8 µg/mL | > 8 µg/mL | < 1 µg/mL | 1 to 8 µg/mL (≈ 2.14 to 17.1 µM) | > 8 µg/mL | 1 to 8 µg/mL (≈ 2.14 to 17.1 µM) | > 8 µg/mL | > 8 µg/mL | > 8 µg/mL | < 1 µg/mL | < 1 µg/mL | > 8 µg/mL | < 1 µg/mL | < 1 µg/mL | 1 to 8 µg/mL (≈ 2.14 to 17.1 µM) | < 1 µg/mL | < 1 µg/mL | < 1 µg/mL | < 1 µg/mL | MIC (EC1001 acc(6′)-Ib): > 8 µg/mL; MIC [6]: > 8 µg/mL
